{"source": "patent US12262990B2", "about": "“Methods and materials for prolonged sweat stimulation” (priority 2016, dated 2025)", "key": {"[1]": {"molecular_target": "acetylcholinesterase (AChE) (Homo sapiens, UniProt P22303)", "sequence (P22303 32-614, species assumed)": "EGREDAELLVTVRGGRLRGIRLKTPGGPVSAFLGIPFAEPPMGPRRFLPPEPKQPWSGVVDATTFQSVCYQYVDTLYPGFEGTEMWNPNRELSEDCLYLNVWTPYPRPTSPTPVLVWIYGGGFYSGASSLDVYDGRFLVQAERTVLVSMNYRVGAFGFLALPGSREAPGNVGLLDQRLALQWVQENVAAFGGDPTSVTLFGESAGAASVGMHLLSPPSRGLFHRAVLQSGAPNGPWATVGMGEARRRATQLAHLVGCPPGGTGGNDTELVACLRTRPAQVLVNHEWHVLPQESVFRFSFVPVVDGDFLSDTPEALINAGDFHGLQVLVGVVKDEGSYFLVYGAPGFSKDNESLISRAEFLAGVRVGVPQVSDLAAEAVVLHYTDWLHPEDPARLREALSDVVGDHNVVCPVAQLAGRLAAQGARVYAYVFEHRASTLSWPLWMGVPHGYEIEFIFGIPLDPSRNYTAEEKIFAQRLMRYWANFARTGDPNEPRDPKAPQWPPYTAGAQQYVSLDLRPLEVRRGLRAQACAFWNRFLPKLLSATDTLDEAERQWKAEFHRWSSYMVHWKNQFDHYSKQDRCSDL", "details": "in words; cited from earlier work"}, "[2]": {"test_system": "skin of Persons A and B", "test": "Example 1: sweat rates by visual and gravimetric (filter paper) testing", "format": "in vivo, human", "details": "for Sweat Generation Rate: single dose about 40 mC/cm^2", "method": "(§1) Sweat was stimulated on two persons (A and B) using for each person a current of 0.5 mA and a charge of 75 mC applied over a total stimulated area of 1.9 cm^2 for a time of 150 seconds. Thus, the total charge density was 75 mC/1.9 cm^2 or about 40 mC/cm^2, and the estimated dose of carbachol delivered to the skin was 0.142 mg. The charge density and stimulant dose estimates may vary based on other ionic impurities that are also dosed (e.g., sodium dosed could decrease the amount of carbachol dosed). The effect of the dosed ionic impurities can be estimated or quantified in any given case by analytical chemistry techniques. […] The stimulated area was divided among two circular test sites that were approximately 1 inch apart. Skin impedance was measured using a Gamry Potentiostat using 2 kHz and 1 V peak to peak sinewave. The electrical resistance results are plotted in FIGS. 2A-2D and 3A-3D for Persons A and B, respectively (the data has been separated into four charts for each person for the sake of clarity). The baseline plots were measured at a control site (i.e., non-stimulated skin) positioned within 1 inch of the stimulation site.\nSweat rates in nL/min/gland were also quantified using visual testing and gravimetric testing. Results from Person B are shown in FIG. 4 for a skin site of about 1 cm^2 of skin at 25 hours after stimulation. Approximately 130 active glands were counted per cm^2. Filter papers were weighed, placed on stimulated and control sites for 10 minutes under a plastic wrap to prevent evaporation, and immediately weighed again, and then sweat generation rates were calculated. […] The data for the stimulated sites 1 and 2 (paper measurements taken from each of the two stimulation areas) is shown in Table 2."}, "[3]": {"test_system": "skin of Persons A and B", "test": "Example 1: iontophoretic sweat stimulation on two persons, followed by skin impedance", "format": "in vivo, human", "details": "for duration of sweat stimulation from a single dose: about 40 mC/cm^2, estimated 0.142 mg, skin impedance", "method": "as §1"}, "[4]": {"test_system": "Muscarinic receptor", "details": "class symbols, key not given; cited from earlier work"}, "[5]": {"test_system": "Nicotinic receptor", "details": "class symbols, key not given; cited from earlier work"}, "[6]": {"test_system": "skin of 8 subjects", "test": "Example 2: iontophoretic sweat stimulation on 8 subjects, gravimetric sweat rate", "format": "in vivo, human", "source_text": "On 8 subjects, sweat was stimulated utilizing carbachol four times as detailed in Table 4 and one additional time utilizing pilocarpine. The stimulated area was divided among two circular test sites with areas of 0.88 cm^2 that were approximately 1 inch apart, which provides a total stimulation area of 1.76 cm^2. The carbachol doses in Table 4 are shown as percentages of the applied charge density compared to the charge density of pilocarpine applied by the commercial Wescor Nanoduct product, which is a charge density of 42 mC/cm^2. The pilocarpine was dosed over 150 seconds using a current of 0.28 mA/cm^2 and a charge density of 42 mC/cm^2, which delivered approximately 90.65 μg/cm^2.\nSweat rate was determined by a gravimetric test. Filter papers were weighed, placed on stimulated and control sites for 10 minutes under a specially designed acrylic holder that prevented any wicking of sweat from neighboring areas and prevented evaporation. The papers were immediately weighed again, and then sweat generation rates were calculated. The results from the gravimetric testing are plotted in FIGS. 4-6. Additionally, three subjects received three consecutive doses of 12.5% carbachol once the sweat rate had fallen below 1 nL/min/gland. The results from the repeated stimulation testing of subjects 1-3 are plotted in FIGS. 7A-7C, respectively."}, "[7]": {"test_system": "skin", "details": "cited from earlier work"}}, "data": [{"smiles": "CC(=O)OCC[N+](C)(C)C", "note": "[Acetylcholine]", "values": [{"measurement": "metabolism by acetylcholinesterase (AChE)", "setting": "[1]", "result": "rapidly metabolized"}]}, {"smiles": "C[N+](C)(C)CCOC(N)=O", "note": "[Carbachol]", "values": [{"measurement": "sweat rate", "setting": "[2]; 40 mC/cm^2 charge density, for 24 hours", "result": "greater than 1 nL/min/gland"}, {"measurement": "active glands counted", "setting": "[2]; Person B, skin site of about 1 cm^2, 25 hours after stimulation", "result": "Approximately 130 per cm^2"}, {"measurement": "Sweat Generation Rate", "setting": "[2]; Subject A, Site 1, 4 hours after stimulation", "result": 6.4, "unit": "nl/min/gland"}, {"measurement": "Sweat Generation Rate", "setting": "[2]; Subject A, Site 1, 23 hours after stimulation", "result": 3.3, "unit": "nl/min/gland"}, {"measurement": "Sweat Generation Rate", "setting": "[2]; Subject A, Site 2, 4 hours after stimulation", "result": 4.6, "unit": "nl/min/gland"}, {"measurement": "Sweat Generation Rate", "setting": "[2]; Subject A, Site 2, 23 hours after stimulation", "result": 3.1, "unit": "nl/min/gland"}, {"measurement": "Sweat Generation Rate", "setting": "[2]; Subject B, Site 1, 5 hours after stimulation", "result": 8.3, "unit": "nl/min/gland"}, {"measurement": "Sweat Generation Rate", "setting": "[2]; Subject B, Site 1, 23 hours after stimulation", "result": 0.3, "unit": "nl/min/gland"}, {"measurement": "Sweat Generation Rate", "setting": "[2]; Subject B, Site 2, 5 hours after stimulation", "result": 9.4, "unit": "nl/min/gland"}, {"measurement": "Sweat Generation Rate", "setting": "[2]; Subject B, Site 2, 23 hours after stimulation", "result": 2.7, "unit": "nl/min/gland"}, {"measurement": "stimulated sweat amount", "setting": "[2]; charge density of less than 40 mC/cm^2", "result": "greater than 1,400 nL/gland/dose"}, {"measurement": "average sweat rates observed", "setting": "[2]; for 24 hours, half the dose", "result": "greater than 2 nL/min/gland"}, {"measurement": "duration of sweat stimulation from a single dose", "setting": "[3]; Person A", "result": "at least 31 hours"}, {"measurement": "duration of sweat stimulation from a single dose", "setting": "[3]; both Persons A and B", "result": "at least 24 hours"}, {"measurement": "duration of sweat generation", "setting": "[3]; lower charge densities than about 40 mC/cm^2", "result": 24, "unit": "h"}, {"measurement": "Receptor Activity Muscarinic", "setting": "[4]", "result": "strong"}, {"measurement": "metabolism by acetylcholinesterase (AChE)", "setting": "[1]", "result": "metabolized much more slowly"}, {"measurement": "Receptor Activity Nicotinic", "setting": "[5]", "result": "strong"}, {"measurement": "duration of stimulated sweating response of greater than 0.1 nL/min/gland", "setting": "[6]; 5 out of 8 subjects, single 12.5% dose (5.25 mC/cm^2)", "result": "greater than 8 hours"}, {"measurement": "sustained sweating following a single iontophoretic dose, compared with pilocarpine", "setting": "[6]; 8 subjects, in words", "result": "much longer than commonly observed for pilocarpine"}, {"measurement": "duration of sweating responses", "setting": "[6]; four of the 8 subjects", "result": "greater than 24 hours"}, {"measurement": "duration of sweating at greater than 1 nL/min/gland", "setting": "[6]; half of the subjects, single 100% dose (42 mC/cm^2)", "result": "greater than 24 hours"}, {"measurement": "duration of sweating at greater than 1 nL/min/gland", "setting": "[6]; subjects e, g, h, 100% dosage (42 mC/cm^2)", "result": "greater than 7 hours"}, {"measurement": "duration of sweating responses", "setting": "[6]; three of the 8 subjects", "result": "greater than 48 hours"}]}, {"smiles": "CC(=O)OC(C)C[N+](C)(C)C", "note": "(stereo not shown) [Methacholine]", "values": [{"measurement": "metabolism by acetylcholinesterase (AChE)", "setting": "[1]", "result": "metabolized much more slowly"}]}, {"smiles": "CC[C@@H]1C(=O)OC[C@@H]1Cc1cncn1C", "note": "[Pilocarpine]", "values": [{"measurement": "average sweat rate", "setting": "[7]; charge density of 40 mC/cm^2, for 90 minutes", "result": "1-4 nL/min/gland"}, {"measurement": "duration of sweat response", "setting": "[7]; charge density of 40 mC/cm^2, on average", "result": 90, "unit": "min"}]}]}
